Source: patent US9198896B2 (priority 2006, dated 2015)
“Also recorded” adds a separate entry of the source. Like-named read-outs stand apart in the source and are kept apart here. Marks after values point to notes of the source that are not given here.

Legend:
[1] = for Blood cells, remarks: dog and bitch
From the text: Hemoglobin was estimated by reacting the blood sample with Drabkin's reagent to convert it to cyanmethemoglobin and measuring the absorbance at 540 nm. Urea was estimated by reacting it with hot acidic diacetylmonoxime in the presence of semicarbarzide and measuring the rose-purple color at 525 nm. Glucose was estimated by glucose oxidase method in the presence of peroxidase and measuring the absorbance of the colored complex of hydroxybenzoate and 4-aminophenazone at 510 nm. Creatinine was measured by reacting it with alkaline picrate and measuring the absorbance of the red-colored complex at 520 nm. Alkaline phosphatase was assayed by its ability to convert phenyl phosphate to inorganic phosphate and phenol. The later reacts with 4-aminoantipyrine to form an orange-red-colored complex, which was measured at 510 nm. Aspartate transaminase was measured by reacting the reaction product oxaloacetate (from the substrate 1-aspartic acid) with 2,4-dinitrophenyl hydrazine. The hydrazone thus formed gives a characteristic brown color when placed in an alkaline medium and was measured at 505 nm. Alanine transaminase was assayed similarly by 2,4-dinitrophenylhydrazine-alkali color reaction; the substrate and products are 1-alanine and pyruvate respectively.
Long-term toxicity test with non-rodents (dog and bitch). Total of 6 animals (4 dogs and 2 bitches) were used for this experiment. The animals were 3-4 months old. Three different modes of treatment were used; two animals received the formulation orally, the other two by intravenous injection and the other two by subcutaneous injection. The total period of treatment was for 4 weeks (5 days per week).
Dogs. For biochemical analysis, blood samples from each individual animal were collected and processed similarly to that of rats. The samples were collected just before the treatment commenced, in mid-phase of the treatment and 7 days after completion of the treatment. The samples were analyzed for the activities of several enzymes and metabolite contents as per the methods described in the respective assay kit and are briefly mentioned before. Hemoglobin estimation and cell count were done with an uncoagulated sample.
However, subcutaneous injections appeared to be painful. The biochemical tests and some hematological studies were performed with blood of the animals, the results of which are presented in the Tables.

[2] = Histological studies with mice; assay type: in vivo; conditions: oral 0.5 gm/kg once a day for 10 weeks
From the text: After end of the treatment, the mice were killed, and several organs were excised and processed for histological studies. Bone marrow cells were taken from the marrow cavity of the femur bone.
Histological studies with mice: Histological studies were done with several organs of mice, and the results are presented in FIG. 1.

EAC cells [3] = test: Increase in life span study of EAC cell-inoculated mice; assay type: in vivo; conditions: 14 days from day 3
Protocol: Increase in life span study. For increase in life span study (ILS), testing was evaluated by calculating the median survival time (MST) of the treated (T) and control (C) groups and expressed as ILS value [(T/C−1)×100].
The treatment started from day 3. The amount of each compound indicated in the parentheses is the amount administered per kg body weight per day.
The day on which 10^5 EAC cells were inoculated into each mouse was considered as day 0. The treatment started from day 3. […] 15 animals received a particular mode of treatment. Control group received only normal saline. […] Each set of experiment was repeated 4 times.

EAC cells [4] = test: Increase in body weight of EAC cell-inoculated mice; assay type: in vivo; conditions: Table 10
Protocol: Increase in body weight: For this experiment, mice were weighed periodically during and after the therapy. The results are expressed as percentage increase in the body weight using the following relationship: percent increase equals
Ehrlich ascites carcinoma bearing mice were treated intraperitonially with different drug combinations in normal saline to observe their effect on body weight (table 10) and life span (table 11). Mice in the control group were similarly treated intraperitonially only with normal saline.
The day on which 10^5 EAC cells were inoculated into each mouse was considered as day 0. The treatment started from day 3. […] 6 animals received a particular mode of treatment. Control group received only normal saline. […] Each set of experiment was repeated 4 times.

[5] = mice, 1 day: oral 2 g, subcutaneous 1 g, intravenous 0.3 g/kg; observed up to 90 days
From the text: Three modes of treatment were used: a) oral, through gastric cannula; b) subcutaneous and c) intravenous, through tail vein. […] For test with mice, the animals were divided in groups each containing 6 animals either male or female weighing 18-20 g. For rats, the animals were divided in groups each containing 5 animals either male or female weighing 80-100 g. The control group in each mode of treatment received either water or normal saline.
Acute toxicity study was done with two species of animals, mice and rat.
All the animals were observed up to 90 days.

[6] = system: ascites sarcoma 180 cells; conditions: Együd and Szent-Györgyi, 1968; cited from earlier work
Fertility study = conditions: oral or intravenous, dose and schedule as chronic toxicity test
EAC cells [7] = test: Tumor growth inhibition study; conditions: for % of cells present in respect of the control / No. of EAC cells (in million) / Volume of packed cells: day 3 to day 16
Protocol: Tumor growth inhibition study: For this study, the total number of EAC cells was counted. The ascites fluid containing cells were quantitatively removed from peritoneal cavity of two mice for a particular drug combination. The cavity was further washed twice with a fixed volume of 0.9% NaCl. The washing and the ascites fluid containing the cells were pooled and centrifuged at 2000×g for 5 min. The packed cell volumes were noted. A fixed amount of aliquot from the packed cells was appropriately diluted, and the number of cells was counted in a hemocytometer. Averages (X^−±SEM) were made of these two parameters, and percentage inhibitions [(1−T/C)×100] were calculated for each dose of different test combinations.

[8] = Pharmacokinetics, single oral dose study; conditions: for ka (apparent absorption rate constant): 1 to 4 h; for k (elimination rate constant): 4-8 h; for half-life / CL/F / Cmax / Tmax: mouse, whole blood, po
Protocol: Whole blood from either rat or mice was taken by heart puncture. To 1 ml of blood sample, 1 ml of distilled water was added and mixed thoroughly and then treated with 50 μl of 70% ice-cold perchloric acid and kept at room temperature for 30 min. It was then centrifuged at 8000×g for 20 min at 4° C. After rejecting the precipitate, the supernatant was brought to pH 7.0 by dropwise addition of saturated potassium carbonate solution. After 10 min, it was centrifuged at 8000×g for 10 min at 4° C. To 1 ml of the resulting supernatant was added 200 μl of 5 M perchloric acid, 500 μl of diaminobenzene in water, and the volume was made up to 2 ml with water. It was scanned in a spectrophotometer in wavelengths 200-400 nm.
Single dose study. […] The entire set of abovementioned experiment was repeated 6 times. Different pharmacokinetic parameters were determined with a one-compartment model with lag time and first order absorption and elimination.
The apparent volume of distribution was calculated from Cp obtained by extrapolation to t=0 (V=dose/Cp 0) considering the body as a single homogeneous compartment, i.e. in one-compartment model.
Clearance or elimination of drug from this compartment occurs in a first order fashion, the amount of drug eliminated per unit time depends on the amount (concentration) of the drug in the body compartment. Then, C=(dose/V) I exp (_kt) where k is the rate constant for elimination of the drug from the compartment.

[9] = Table 7, MG 30 mg/kg/day ip 0.5 ml
[10] = Table 7, MG 100 mg/kg/day ip 0.5 ml
[11] = Table 11, MG 30 mg/kg/day ip 0.25 ml
[12] = Table 11, MG 100 mg/kg/day ip 0.25 ml
[13] = mice, single oral dose 50 mg/kg
[14] = mice, single oral dose 100 mg/kg
[15] = mice, single oral dose 200 mg/kg

## CC(=O)C=O [methylglyoxal]
[1]; After treatment
  Blood cells, remarks: Mild hypochromia; also recorded: No abnormal cells
[1]; Mid-phase treatment
  Blood cells, remarks: Mild hypochromia; also recorded: No abnormal cells
[1]; dog, in vivo
  Basophils: 0%
[1]; dog, long-term treatment
  general physical conditions and behavioral pattern vs control: no abnormalities
[1]; dogs, during and after the treatment (90 days)
  death: no death occurred
[2]
  histological examination of organs (liver, kidney, spleen, duodenum, bone marrow): none of the organs tested by histological examination had any adverse effect
EAC cells [3]; [9]
  60 day survivors/15 animals: 1
  ILS value: 34%
  Median survival time: 26 days
EAC cells [3]; [10]
  60 day survivors/15 animals: 10
  ILS value: Cure
  Median survival time: Indefinite
EAC cells [3]; [11]
  60 day survivors/15 animals: 1
  ILS value (Median survival time of (Treated/Control − 1) × 100]): 35%
  Median survival time: 27 days
EAC cells [3]; [12]
  60 day survivors/15 animals: 11
  ILS value (Median survival time of (Treated/Control − 1) × 100]): Cure
  Median survival time: Indefinite
EAC cells [4]; MG 30 mg/kg/day ip, Day 15
  Percent increase in body weight: 15.8 ± 1.3%
EAC cells [4]; MG 30 mg/kg/day ip, Day 25
  Percent increase in body weight: 30.0 ± 2.9%
EAC cells [4]; MG 30 mg/kg/day ip, Day 35, 2 animals survived out of 6
  Percent increase in body weight: 38.8 ± 3.0^b %
EAC cells [4]; MG 100 mg/kg body weight/day ip, Day 15
  Percent increase in body weight: 8.0 ± 0.7%
EAC cells [4]; MG 100 mg/kg body weight/day ip, Day 20
  Percent increase in body weight: 10.0 ± 1.2%
EAC cells [4]; MG 100 mg/kg body weight/day ip, Day 25
  Percent increase in body weight: 11.0 ± 1.0%
[5]
  death: No death
[6]
  tumor development: no tumor developed
Fertility study
  abnormalities among the litters: Neither deformation of organs nor any other abnormalities
EAC cells [7]; EAC cell-inoculated mice, doses of Table 9
  effect on cell proliferation in the peritoneal cavity: significant inhibitory effect
EAC cells [7]; MG 30 mg/kg/day, Day 10
  % of cells present in respect of the control: 5%
  No. of EAC cells (in million): 15 ± 2 million
EAC cells [7]; MG 30 mg/kg/day, Day 14
  % of cells present in respect of the control: 13%
  No. of EAC cells (in million): 230 ± 10 million
  Volume of packed cells: 0.26 ± 0.02 mL
EAC cells [7]; MG 30 mg/kg/day, Day 18
  % of cells present in respect of the control: 23%
  No. of EAC cells (in million): 820 ± 30 million
  Volume of packed cells: 0.96 ± 0.05 mL
EAC cells [7]; MG 100 mg/kg/day, Day 10
  % of cells present in respect of the control: 0%
EAC cells [7]; MG 100 mg/kg/day, Day 14
  % of cells present in respect of the control: 0%
EAC cells [7]; MG 100 mg/kg/day, Day 18
  % of cells present in respect of the control: 0%
[8]; [13]
  Lag time: ≈55 min
  V (apparent volume of distribution): 23.31 L/kg
  ka (apparent absorption rate constant): 0.277 h⁻¹
  k (elimination rate constant): 0.33 h⁻¹
[8]; [14]
  Lag time: ≈50 min
  V (apparent volume of distribution): 41.84 L/kg
  ka (apparent absorption rate constant): 0.223 h⁻¹
  k (elimination rate constant): 0.198 h⁻¹
[8]; [15]
  Lag time: ≈50 min
  V (apparent volume of distribution): 80.97 L/kg
  ka (apparent absorption rate constant): 0.216 h⁻¹
  k (elimination rate constant): 0.192 h⁻¹
[8]; mice, single oral dose, all the three doses (50, 100, 200 mg/kg)
  lag time: 50 to 55 min
[8]; mice, untreated and orally treated
  concentrations in plasma and whole blood compared: almost identical
[8]
  half-life: 2.1 to 3.6 h
[8]; 50 mg/kg
  CL/F: 128 mL/min/kg
  Cmax: 13.9 µM
  half-life: 2.1 h
[8]; 50 mg/kg, tmax, mice, single oral dose 50 mg/kg
  Tmax: ~4 h
[8]; 100 mg/kg
  CL/F: 138 mL/min/kg
  Cmax: 18.7 µM
  half-life: 3.5 h
[8]; 100 mg/kg, tmax, mice, single oral dose 100 mg/kg
  Tmax: ~4 h
[8]; 200 mg/kg
  CL/F: 259 mL/min/kg
  Cmax: 19.5 ± 3.36 µM
  half-life: 3.6 h
[8]; 200 mg/kg, time of peak blood concentration (tmax), mice, single oral doses of 50, 100 and 200 mg/kg
  Tmax: 4 h
[8]; 200 mg/kg, tmax, mice, single oral dose 200 mg/kg
  Tmax: ~4 h
